Reference: patent publication US20240100201A1, “Labeling precursors and radiotracers for nuclear medicine diagnosis and therapy of prostate cancer-induced bone metastases” (SCV-SpezialChemikalienVertrieb GmbH, priority 2021, published 2024)
Like-named read-outs stand apart in the source and are kept apart here. Blank lines part the entries; values can stand above or below the compound they belong to.

Key:
PSMA [1] = molecular target: T1, PSMA (Homo sapiens, UniProt Q04609); assay: competitive radioligand assay on PSMA-positive LNCaP cells (Ki); assay type: binding
T1 construct: PSMA-positive LNCaP cells from Sigma-Aldrich; host or cells: LNCaP cells
Procedure: By means of comparative radioligand assays, binding affinity for PSMA is determined for the radiotracer or labeling precursor DOTA.L-Lys(SA.Pam)KuE-617 and reference structures. The Ki-value for [^natLu]Lu-DOTA.L-Lys(SA.Pam)KuE-617 corresponds roughly to the value for the labeling precursor DOTA.L-Lys(SA.Pam) KuE-617. […] Compared to DOTA.L-Lys.KuE-617—corresponding to structural formula (14) in scheme 31—the Ki of [^natLu]Lu-DOTA.L-Lys(SA.Pam)KuE-617 is greater by a factor of about 2. It can be seen from this that the squaric acid-pamidronate group reduces affinity for PSMA.
Non-active (cold) [natLu]Lu complexes are prepared by shaking a solution containing the labeling precursor DOTA-L-Lys(SA.Pam)-KuE-617 (371 μl, 1 mg/ml, 250 nmol) with LuCl3 (129 μl, 1 mg/ml, 375 nmol, metal to labeling precursor ratio 1.5:1) in 1 M ammonium acetate buffer at 95° C. for 2 hours. Complex formation is monitored by ESI-LC/MS.
PSMA binding affinity is determined by the competitive radioligand assay described by Benešová et al. (Benešová, M.; Schaefer, M.; Bauder-Wüst, U.; Afshar-Oromieh, A.; Kratochwil, C.; Mier, W.; Haberkorn, U.; Kopka, K.; Eder, M. Preclinical Evaluation of a Tailor-Made DOTA-Conjugated PSMA Inhibitor with Optimized Linker Moiety for Imaging and Endoradiotherapy of Prostate Cancer. J. Nucl. Med. 2015, 56 (6), 914-920.). For this purpose, PSMA-positive LNCaP cells from Sigma-Aldrich in RPMI 1640 (Thermo Fisher Scientific) supplemented with 10% fetal bovine serum (Thermo Fisher Scientific), 100 μg/ml streptomycin and 100 units/ml penicillin are cultured at 37° C. in 5% CO2. The LNCaP cells are incubated with increasing concentrations of solutions containing the labeling precursors in the presence of 0.75 nM [^68Ga]Ga-PSMA-10 for 45 min. Free radioactivity is removed by several washes with ice-cold PBS. The samples obtained are measured in a y counter (2480 WIZARD2 Automatic Gamma Counter, PerkinElmer). The measurement data are evaluated in GraphPad Prism 9 using non-linear regression.

PSMA [2] = molecular target: T1, PSMA; assay: cell-based competitive assay on LNCaP cells (PSMA affinity, IC50); assay type: binding; details: 45 min, 68Ga-labeled PSMA reference compound
Description: Using a cell-based assay, the affinity of the KuE targeting vector with a lipophilic linker—analogously to PSMA-617—and with a squaric acid linker was examined using the compounds NH2.DOTAGA.KuE-617 and NH2.DOTAGA.QS.KuE (structural formulae (8) and (10) in scheme 32).
For the assay, LNCaP cells were pipetted into multiwell plates (Merck Millipore Multiscreen™). To the compounds to be analyzed, in increasing concentrations, was in each case added a defined amount or concentration of the reference compound ^68Ga[Ga]PSMA-with known Kdvalue, and the mixture was incubated in the wells with the LNCaP cells for 45 min. After washing several times, the cell-bound activity was determined.
In order to determine non-specific binding, an excess of the PSMA inhibitor 2-PMPA (2-(phosphonomethyl)[…]) was additionally added to all compounds, and they were subjected to the same LNCaP assay-as described above.

[3] = adsorption isotherms on hydroxyapatite by the method of Langmuir and Freundlich; assay type: binding; details: Langmuir-Freundlich
Procedure: For this purpose, the adsorption therms are determined by the method of Langmuir and Freundlich.
For comparison, schemes 23 and 24 show conjugates of the chelator NODAGA with squaric acid pamidronate (NODAGA.QS.Pam) and NODAGA with zoledronate (NODAGA.Zol), and also the respective coefficients of adsorption KLF, measured by the method of Langmuir and Freundlich.

[4] = lipophilicity, partition in n-octanol and PBS; assay type: physicochemical; details: pH 7.4
Procedure: The lipophilicity of […] is determined by determining the partition equilibrium of the compound in a mixture of n-octanol and PBS.
LogD7.4 of the respective compound is determined via the partition coefficient in n-octanol and PBS. The labeling solution is adjusted to pH 7.4 and 5 MBq is diluted in 700 μl of n-octanol and 700 μl of PBS. It is shaken at 1500 rpm for 2 min and then centrifuged. 400 μl of the n-octanol phase and 400 μl of the PBS phase were each transferred to a new Eppendorf tube. 3-6 μl is then pipetted onto a TLC plate and analyzed using a phosphor imager. The logD7.4 is calculated based on the ratio of the activities of the two phases. The measurement of each phase is also repeated twice more with the sample of higher activity, such that three logD7.4 values can be obtained and an average can be calculated.

[5] = affinity for hydroxyapatite (HAP) of 177Lu-labeled compounds; assay type: binding; details: ordinary HAP, 1 h room temperature
Procedure: Calcium-containing crystalline hydroxyapatite is an essential component of mammalian bones and is suitable as a model substrate for the in vitro study of bisphosphonate accumulation in healthy bone tissue and bone metastases. […] In contrast, […] is found to have an HAP-enriched fraction of only 1.2%. In order to determine selectivity, accumulation on HAP previously treated with excess pamidronate was additionally measured.
Hydroxyapatite (20 mg) is incubated in saline (1 ml) for 24 h. 50 μl of the radiotracer [^177Lu]Lu-DOTA-L-Lys(SA.Pam)-KuE-617 (5 MBq) or [^177Lu]Lu-PSMA-617 (5 MBq) is added. Each suspension is vortexed with a vortex mixer for 20 s and incubated at room temperature for 1 h. […] The radioactivity of the liquids and HAP-containing supernatants obtained is measured in each case with a curiemeter (Isomed 2010 activimeter, MED Nuclear-Medizintechnik Dresden GmbH). The binding of [^177Lu]Lu-DOTA-L-Lys(SA.Pam)-KuE-617 and [^177Lu]Lu-PSMA-617 is determined as a percentage of the activity absorbed on HAP. As a reference, the HAP binding of free Lu-177 is measured in an analogous manner. […] For this purpose, HAP (20 mg) in saline solution (1 ml) is incubated with pamidronate (100 mg) and the respective activities of [^177Lu]Lu-DOTA-L-Lys(SA.Pam)-KuE-617 and free Lu-177 are determined.

[6] = LNCaP cells, 0.75 nM [68Ga]Ga-PSMA-10, 45 min, read-out: PSMA Ki

T1 sequence (Q04609 whole entry): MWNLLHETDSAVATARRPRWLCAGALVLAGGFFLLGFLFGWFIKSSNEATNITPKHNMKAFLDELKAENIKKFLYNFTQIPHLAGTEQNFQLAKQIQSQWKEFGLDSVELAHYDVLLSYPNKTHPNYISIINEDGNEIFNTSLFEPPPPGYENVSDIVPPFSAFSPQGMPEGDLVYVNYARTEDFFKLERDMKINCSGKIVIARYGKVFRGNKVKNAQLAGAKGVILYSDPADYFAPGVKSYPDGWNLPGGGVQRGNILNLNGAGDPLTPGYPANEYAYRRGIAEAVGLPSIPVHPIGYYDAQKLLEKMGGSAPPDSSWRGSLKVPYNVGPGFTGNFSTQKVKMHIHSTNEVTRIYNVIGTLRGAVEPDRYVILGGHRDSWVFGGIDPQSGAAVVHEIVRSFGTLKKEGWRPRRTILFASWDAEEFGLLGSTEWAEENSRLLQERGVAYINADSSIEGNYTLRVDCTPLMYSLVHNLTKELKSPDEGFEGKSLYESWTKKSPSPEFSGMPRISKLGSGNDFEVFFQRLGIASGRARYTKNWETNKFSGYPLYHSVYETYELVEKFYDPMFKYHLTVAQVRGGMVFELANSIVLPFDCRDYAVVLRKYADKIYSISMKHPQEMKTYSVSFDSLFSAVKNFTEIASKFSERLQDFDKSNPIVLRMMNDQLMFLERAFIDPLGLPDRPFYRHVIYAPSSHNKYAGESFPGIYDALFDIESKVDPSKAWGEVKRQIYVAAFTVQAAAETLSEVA

Compound: O=C(O)CCC(NC(=O)NC(CCCCNC(=O)C(Cc1ccc2ccccc2c1)NC(=O)C1CCC(CNC(=O)C(CCCCNc2c(NCCC(O)(P(=O)(O)O)P(=O)(O)O)c(=O)c2=O)NC(=O)CN2CCN(CC(=O)O)CCN(CC(=O)O)CCN(CC(=O)O)CC2)CC1)C(=O)O)C(=O)O [DOTA.L-Lys(SA.Pam)KuE-617]
Ki (PSMA [1]): 53 ± 4 nM

Compound: NCCCCC(NC(=O)CN1CCN(CC(=O)O)CCN(CC(=O)O)CCN(CC(=O)O)CC1)C(=O)NCC1CCC(C(=O)NC(Cc2ccc3ccccc3c2)C(=O)NCCCCC(NC(=O)NC(CCC(=O)O)C(=O)O)C(=O)O)CC1 [DOTA.L-Lys.KuE-617]
Ki (PSMA [1]; [6]): 20 ± 3 nM

Compound: NCCN1CCN(CC(=O)O)CCN(C(CCC(=O)NCC2CCC(C(=O)NC(Cc3ccc4ccccc4c3)C(=O)NCCCCC(NC(=O)NC(CCC(=O)O)C(=O)O)C(=O)O)CC2)C(=O)O)CCN(CC(=O)O)CC1 (stereo not drawn) [NH2.DOTAGA.KuE-617]
IC50 (PSMA [2]): 20.6 ± 3.4 nM

Compound: O=C(O)CN1CCN(CC(=O)O)CCN(C(CCC(=O)NCCNc2c(NCCC(O)(P(=O)(O)O)P(=O)(O)O)c(=O)c2=O)C(=O)O)CC1 (stereo not drawn) [NODAGA.QS.Pam]
coefficient of adsorption KLF compared with NODAGA.Zol [3]: about three times greater

Compound: O=C(O)CCC(NC(=O)NC(CCCCNC(=O)C(Cc1ccc2ccccc2c1)NC(=O)C1CCC(CNC(=O)CCC(C(=O)O)N2CCN(CC(=O)O)CCN(CCNc3c(NCCC(O)(P(=O)(O)O)P(=O)(O)O)c(=O)c3=O)CCN(CC(=O)O)CC2)CC1)C(=O)O)C(=O)O (stereo not drawn) [Pam.SA.DOTAGA.KuE-617]
IC50 (PSMA [2]): 49.8 ± 10 nM

Further lines, with some results ahead:

IC50 (PSMA [2]): 20.2 ± 3.5 nM
Compound: NCCN1CCN(CC(=O)O)CCN(C(CCC(=O)NCCNc2c(NCCCCC(NC(=O)NC(CCC(=O)O)C(=O)O)C(=O)O)c(=O)c2=O)C(=O)O)CCN(CC(=O)O)CC1 (stereo not drawn) [NH2.DOTAGA.QS.KuE]

Ki (PSMA [1]; [6]): 7 ± 1 nM
Compound: O=C(O)CCC(NC(=O)NC(CCCCNC(=O)C(Cc1ccc2ccccc2c1)NC(=O)C1CCC(CNC(=O)CN2CCN(CC(=O)O)CCN(CC(=O)O)CCN(CC(=O)O)CC2)CC1)C(=O)O)C(=O)O (stereo not drawn) [PSMA-617, reference compound]

LogD7,4 (n-octanol/PBS) [4]: −2.2 ± 0.20
Compound: [^177Lu]Lu-PSMA-617
proportion bound to HAP [5]: 1.2%
